Laboratory results taken from US5792767A, “Bicyclic substituted hexahydrobenz [e] isoindole alpha-1 adrenergic antagonists” (priority 1995, dated 1998).
Where a name gives a salt, the structure may show the parent alone.

Experiments:
[1] = biological target: T1, α-1A adrenoceptor (rat vas deferens) (Rattus norvegicus, UniProt P43140); experiment: Functional antagonism of phenylephrine-induced contraction of rat vas deferens; format: cell-based; details: vs phenylephrine-induced contraction, Schild plot; for Kb: read-out: pA2 Rat Vas Deferens [α-1A] (converted)
T1 construct: PE-induced contraction of rat vas deferens; from tissue; host or cells: isolated rat vas deferens
T1 sequence (P43140 1-466): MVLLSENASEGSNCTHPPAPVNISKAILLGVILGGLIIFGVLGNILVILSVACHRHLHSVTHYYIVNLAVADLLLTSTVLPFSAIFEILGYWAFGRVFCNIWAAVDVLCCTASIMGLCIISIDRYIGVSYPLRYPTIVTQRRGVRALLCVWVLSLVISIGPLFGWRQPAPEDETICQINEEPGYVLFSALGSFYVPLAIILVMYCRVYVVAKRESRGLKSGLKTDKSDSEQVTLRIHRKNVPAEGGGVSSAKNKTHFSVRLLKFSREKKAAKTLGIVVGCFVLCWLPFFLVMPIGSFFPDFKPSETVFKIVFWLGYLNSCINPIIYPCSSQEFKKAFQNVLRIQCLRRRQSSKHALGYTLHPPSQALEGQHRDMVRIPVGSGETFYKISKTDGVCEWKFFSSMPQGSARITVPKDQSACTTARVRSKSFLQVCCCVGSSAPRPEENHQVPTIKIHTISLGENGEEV
Source text: (§1) Functional assays indicative of pharmacologically defined α-1 adrenoceptors were used to further characterize compounds. Inhibition of phenylephrine (PE)-induced contraction of canine prostate smooth muscle can be correlated with α-1A adrenoceptor activation. […] For each of these models, agonist dose response curves were repeated against increasing concentrations of test agent to derive a Schild plot [log ([…]) against log (molarity of test agent)] to determine the pA2.

[2] = biological target: T2, α-1B adrenoceptor (rat spleen) (Rattus norvegicus, UniProt P15823); experiment: Functional antagonism of phenylephrine-induced contraction of rat spleen; format: cell-based; details: vs phenylephrine-induced contraction, Schild plot; for Kb: read-out: pA2 Rat Spleen [α-1B] (converted)
T2 construct: PE-induced contraction of rat spleen; from tissue; host or cells: isolated rat spleen
T2 sequence (P15823 1-515): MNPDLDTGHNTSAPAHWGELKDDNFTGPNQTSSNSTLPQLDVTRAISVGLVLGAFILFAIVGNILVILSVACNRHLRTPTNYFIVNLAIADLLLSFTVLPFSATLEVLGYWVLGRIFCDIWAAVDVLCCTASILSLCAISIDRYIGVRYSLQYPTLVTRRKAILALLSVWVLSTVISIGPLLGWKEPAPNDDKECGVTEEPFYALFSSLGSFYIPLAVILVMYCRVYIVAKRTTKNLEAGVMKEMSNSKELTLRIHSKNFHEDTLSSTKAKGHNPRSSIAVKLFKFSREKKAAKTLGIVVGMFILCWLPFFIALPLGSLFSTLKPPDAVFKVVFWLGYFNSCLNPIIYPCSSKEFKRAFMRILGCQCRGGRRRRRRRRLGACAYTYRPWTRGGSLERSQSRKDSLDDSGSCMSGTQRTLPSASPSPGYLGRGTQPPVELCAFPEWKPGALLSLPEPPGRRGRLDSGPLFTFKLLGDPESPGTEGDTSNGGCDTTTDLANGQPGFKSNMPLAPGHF
Source text: as §1

[3] = biological target: T3, α-1A adrenoceptor (dog prostate) (Homo sapiens, UniProt P35348); experiment: Functional antagonism of phenylephrine-induced contraction of canine prostate strips; format: cell-based, dog (canine); details: vs phenylephrine-induced contraction, Schild plot
T3 construct: from tissue; host or cells: canine prostate strips
T3 sequence (P35348 1-466): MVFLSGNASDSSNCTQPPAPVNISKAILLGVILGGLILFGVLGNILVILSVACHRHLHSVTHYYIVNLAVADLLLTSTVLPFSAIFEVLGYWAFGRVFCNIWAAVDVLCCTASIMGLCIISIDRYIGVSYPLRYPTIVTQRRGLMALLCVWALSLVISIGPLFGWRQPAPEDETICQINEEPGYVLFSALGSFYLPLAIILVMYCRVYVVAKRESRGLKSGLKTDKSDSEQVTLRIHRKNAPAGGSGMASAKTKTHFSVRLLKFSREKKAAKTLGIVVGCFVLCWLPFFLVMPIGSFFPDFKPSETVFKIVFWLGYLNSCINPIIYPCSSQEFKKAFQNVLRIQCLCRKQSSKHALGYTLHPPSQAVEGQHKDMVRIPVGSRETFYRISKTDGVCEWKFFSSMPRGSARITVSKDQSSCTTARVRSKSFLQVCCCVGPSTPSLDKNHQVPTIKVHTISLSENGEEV
Source text: (§2) Canine prostate strips were used in vitro as previously described (Hieble, J. P., Boyce, A. J. and Caine, M., Fed. Proc., 45: 2609-2614 (1986)), to determine antagonist potencies against phenylephrine-induced contractions.
as §1

[4] = biological target: T4, α-1A adrenoceptor (dog prostate); experiment: as above; format: cell-based, dog (canine); details: vs phenylephrine-induced contraction, Schild plot; read-out: pA2 Dog Prostate [α-1A] (converted)
T4 construct: from tissue; host or cells: canine prostate strips
Source text: as §2, §1

BPH patients = details: cited from earlier work; for improvement in urinary flow rates and subjective symptom scores: longer term studies

SMILES	pA2 Dog Prostate [α-1A] [3]	Kb [1] [nM]	Kb [2] [nM]	Kb [4] [nM]	also measured
COc1cccc2c1CC[C@@H]1CN(CCn3c(=O)[nH]c4ccccc4c3=O)C[C@H]21 (relative stereo) [Example 1, 3-[2-(cis-9-Methoxy-2,3,3a,4,5,9b-hexahydro-[1H]-benz[e]isoindol-1-yl)ethyl]-[1H,3H]-quinazoline-2,4(1H,3H)-dione hydrochloride]	9.29	–	–	–	pA2 Rat Vas Deferens [α-1A] [1]: 8.49; pA2 Rat Spleen [α-1B] [2]: 8
COc1cccc2c1CC[C@H]1CN(CCn3c(=O)[nH]c4c(OC)cccc4c3=O)C[C@@H]21 (relative stereo) [Example 9, 3-[2-(cis-6-Methoxy-2,3,3a,4,5,9b-hexahydro-[1H]-benz[e]isoindol-1-yl)ethyl]-8-methoxy-quinazoline-2,4(1H,3H)-dione hydrochloride]	–	2.4	8.91	0.407	–
COc1cccc2c1CC[C@H]1CN(CCn3c(=O)[nH]c4cccc(C)c4c3=O)C[C@@H]21 (relative stereo) [Example 12, hydrochloride]	–	8.51	6.76	21.4	–
COc1cccc2c1CC[C@H]1CN(CCn3c(=O)[nH]c4c(-c5ccccc5)csc4c3=O)C[C@@H]21 (relative stereo) [Example 31, 3-[2-(cis-6-Methoxy-2,3,3a,4,5,9b-hexahydro-[1H]-benz[e]isoindol-1-yl)ethyl]-7-phenylthieno[3.2-d]pyrimidine-2,4(1H,3H)-dione methanesulfonate]	8.63	–	–	–	–
COc1cccc2c1CC[C@H]1CN(CCn3c(=O)[nH]c4sccc4c3=O)C[C@@H]21 [Example 13, hydrochloride]	–	7.59	4.27	0.851	–
COc1cccc2c1CC[C@H]1CN(CCn3c(=O)[nH]c4cc(C)c(C)cc4c3=O)C[C@@H]21 [Example 68, hydrochloride]	8.28	–	–	–	–
CCCOC(=O)c1ccc2c(=O)n(CCN3C[C@@H]4CCc5c(OC)cccc5[C@@H]4C3)c(=O)[nH]c2c1 [Example 72, hydrochloride]	8.57	–	–	–	–
COc1cccc2c1CC[C@H]1CN(CCn3c(=O)[nH]c4c(C)c(OC)ccc4c3=O)C[C@@H]21 [Example 77, 3-[2-((3aR,9bR)cis-6-Methoxy-2,3,3a,4,59b-hexahydro-[1H]-benz[e]isoindol-1-yl)ethyl]-7-methoxy-8-methyl-quinazoline-2(1H,3H)-dione hydrochloride]	–	0.479	2.95	0.398	–
CCOc1ccc2c(=O)n(CCN3C[C@@H]4CCc5c(OC)cccc5[C@@H]4C3)c(=O)[nH]c2c1C [Example 78, 3-[2-((3aR,9bR)cis-6-Methoxy-2,3,3a,4,5,9b-hexahydro-[1H]-benz[e]isoindol-1I-yl)ethyl]-7-ethox-8-methyl-quinazoline-2,4(1H,3H|-dione hydrochloride]	8.03	–	–	–	–
COc1cccc2c1CC[C@H]1CN(CCn3c(=O)[nH]c4c(C)c(C)ccc4c3=O)C[C@@H]21 [Example 80, 3-[2-((3aR.9bR)cis-6-Methoxy-2,3,3a,4,5,9b-hexahydro-[1H-benz[e]isoindol-1-yl)ethyl]-7.8-dimethylquinazoline-2,4(1H,3H)-dione hydrochloride]	–	0.891	11.7	0.631	–
COc1cccc2c1CC[C@H]1CN(CCn3c(=O)[nH]c4c(OC)c(OC)ccc4c3=O)C[C@@H]21 [Example 81, hydrochloride]	9.45	–	–	–	pA2 Rat Vas Deferens [α-1A] [1]: 8.9; pA2 Rat Spleen [α-1B] [2]: 8.15
CCc1cccc2c1CC[C@H]1CN(CCn3c(=O)[nH]c4cc(OC)c(OC)cc4c3=O)C[C@@H]21 [Example 83, hydrochloride]	–	8.51	120	11.2	–
COc1cc2nc(N3CCN(C(=O)C4COc5ccccc5O4)CC3)nc(N)c2cc1OC (stereo not shown) [doxazosin]	–	–	–	–	improvement in urinary flow rates and subjective symptom scores (BPH patients): significant improvements in urinary flow rates and subjective symptom scores
O=C(NC1CCN(CCc2c[nH]c3ccccc23)CC1)c1ccccc1 [indoramin]	–	–	–	–	improvement in urinary flow rates and subjective symptom scores (BPH patients): significant improvements in urinary flow rates and subjective symptom scores
COc1cc2nc(N3CCN(C(=O)c4ccco4)CC3)nc(N)c2cc1OC [prazosin]	–	–	–	–	improvement in urinary flow rates and subjective symptom scores (BPH patients): significant improvements in urinary flow rates and subjective symptom scores
COc1cc2nc(N3CCN(C(=O)C4CCCO4)CC3)nc(N)c2cc1OC (stereo not shown) [terazosin]	–	–	–	–	pA2 Rat Spleen [α-1B] [2]: 8.6; improvement in urinary flow rates and subjective symptom scores (BPH patients): significant improvements in urinary flow rates and subjective symptom scores; clinical efficacy in BPH (BPH patients; non-selective α-1 blockers): Clinical efficacy of α-1 antagonists in BPH has been demonstrated
